Assay results taken from patent publication US20150208654A1, “SEED COATING METHODS AND COMPOSITIONS WITH A RYANODINE RECEPTOR BINDING AGENT” (PIONEER HI-BRED INTERNATIONAL, INC., priority 2012, published 2015).

Tests used:
Type in all cases: in vivo
[1] = tested on: velvetbean caterpillar (VBC) (Anticarsia gemmatalis); experiment: Laboratory-field leaf bio-assay (LBF) on leaves of soybean plants grown from treated seeds; settings: seed treatment 120 ug ai/seed, 2nd instar larvae
Method: Soybean seeds were treated with chlorantraniliprole at rates of 120 ug ai/seed. The seeds were sown into soil bed fields with a size of 6 meters in length and 4 rows of 40 cm in width. Leaf samples were collected at the 3rd to the 7th soybean trifoliate growth stage and brought to the laboratory. Laboratory-field leaf bio-assay (LBF) was performed for each soybean growth stage using velvetbean caterpillar (VBC) (Anticarsia gemmatalis) exposing the leaves to 2nd instar larvae stage. Each treatment group was replicated 4 times, and results (Table 2) are expressed as % larval mortality. At 43 days after planting, the VBC larval mortality rate was 88%.

[2] = tested on: velvetbean caterpillar (VBC) (Anticarsia gemmatalis); experiment: Field plot larvae count on soybean grown from treated seeds (area 1); settings: 100 ug ai/seed, compared to untreated
Method: (§1) Soybean seeds were treated with chlorantraniliprole at rate of 100 ug ai/seed. The seeds were sown into soil bed fields (area 1) with a size of 8 meters by 8 meters in size, with an area of 64 m2. Plots were replicated 4 times. Evaluation was based on the total number of velvetbean caterpillar (VBC) (Anticarsia gemmatalis) larvae per meter at 37 to 63 days after planting (DAP), and converted to % larvae count reduction compared to the untreated (Table 3). 50 days after planting, the VBC larvae reduction was still 73%, and after 63 days had activity at 35%.

[3] = tested on: velvetbean caterpillar (VBC) (Anticarsia gemmatalis); experiment: Field plot larvae count on soybean grown from treated seeds (area 2); settings: 100 ug ai/seed, compared to untreated
Method: as §1, with “2)” for “1)”, “untreated.” for “untreated (Table 3). 50 days after planting, the VBC larvae reduction was still 73%, and after 63 days had activity at 35%.”

CNC(=O)c1cc(Cl)cc(C)c1NC(=O)c1cc(Br)nn1-c1ncccc1Cl [Chlorantraniliprole, chlorantraniliprole]
% VBC larval mortality ([1]; 3rd trifoliate, 25 DAP): 100% | % VBC larval mortality ([1]; 4th trifoliate, 29 DAP): 94% | % VBC larval mortality ([1]; 5th trifoliate, 36 DAP): 91% | % VBC larval mortality ([1]; 7th trifoliate, 43 DAP): 88% | % VBC larvae reduction ([2]; 37 DAP): 20% | % VBC larvae reduction ([2]; 50 DAP): 73% | % VBC larvae reduction ([2]; 63 DAP): 35% | % VBC larvae reduction ([3]; 37 DAP): 25% | % VBC larvae reduction ([3]; 50 DAP): 20% | % VBC larvae reduction ([3]; 63 DAP): 43%
